The values that follow are results of earlier work, collected in patent US20050004065A1, “Hypoxia regulated genes” (Quark Biotech, Inc., priority 1998, published 2005).

For the data set, the system named is neuron cells. Particulars: in vitro; previously shown.

Regarding `CC(C)C(O)CC[C@@H](C)[C@H]1CC[C@H]2[C@@H]3CC=C4C[C@@H](O)CC[C@]4(C)[C@H]3CC[C@]12C` (some centres unmarked) [24-hydroxycholesterol], the “toxicity for neuron cells” value is recorded as “toxic for neuron cells in vitro”. Take `C[C@H](CCCC(C)(C)O)[C@H]1CC[C@H]2[C@@H]3CC=C4C[C@@H](O)CC[C@]4(C)[C@H]3CC[C@]12C` [25-hydroxycholesterol]: the “toxicity for neuron cells” value was “toxic for neuron cells in vitro”.
